Series [1] can be described thus: Toxicity test, 3H-thymidine incorporation (total DNA synthesis, cell growth). It counts as cell-based. Conditions: cells in growth phase (cell line not given); 48 hours treatment, 6 hours 3H-thymidine pulse; highest concentration evaluated 100 μM; read-out: Toxic Conc. (TC50) Cell Growth. The procedure: Cells in growth phase were treated with serial concentrations of compound for 48 hours and pulse labeled with 3H-thymidine for 6 hours. The cells were then harvested to measure total DNA synthesis in the presence or absence of the compound (Kucera et al., Antiviral Chemistry and Chemotherapy, 9: i57-i65 (1998)).
TC50 determinations were calculated by the method of Chou et al. Elsvier: Amsterdam, 1985, as described in Piantadosi C. et al., Journal of Medicinal Chemistry, 34: 1408-1414 (1991). The TC50 for KPC-15 and KPC-11 were unable to be determined since at the highest concentration evaluated (100 μM), 50% toxicity was not observed. Thus, KPC-15 and KPC-11, lacked significant toxicity in vitro with the TC50>100 μM.

The test system of another series is RSV (Long strain). Kind of series: RSV plaque assay with Hep-2 cell monolayers. Conditions: for pEC50: human respiratory syncytial virus, 144 h, Hep-2 cell monolayers, RSV Long strain, 6 days of incubation, 0.4-50 μM in triplicate, read-out: Effective Conc. (EC50) RSV Plaque Count. Format: cell-based. The procedure: The ability of the active compounds to inhibit the growth of RSV was determined using a standard plaque assay with Hep-2 cell monolayers. The cell monolayers were infected with RSV (Long strain obtained from the American Tissue Culture Catalog, Cat# VR-26). After one hour of virus attachment, the cells were overlaid with medium containing methyl cellulose with or without serial concentrations of compound (0.4-50 μM). Each concentration was tested in triplicate. After 6 days of incubation, the overlay medium was aspirated and the cells fixed with absolute ethanol and stained with crystal violet to visualize RSV plaques and cell cytotoxicity using a 4× dissecting microscope. To determine the percent inhibition of RSV plaque formation, the mean number of RSV plaques in the presence of compound was divided by the number of RSV plaques in the control without added compounds. The quotient was subtracted from 1 and then multiplied by 100% to establish the % inhibition.

pEC50: −log10 of the molar value.

As for `CCCCCCCCCCCC(=O)NCC(COP(=O)([O-])OCC[N+](C)(C)C)OCC` (centres unmarked) [KPC-15, 3-dodecylamido-2-ethoxypropylphosphocholine], the CC50 at 48 h in series [1] is over 100 µM. For the same compound, in the series with RSV (Long strain), the “SI (Selectivity Index: TC50 Cell Growth divided by EC50 Plaque Inhibition)” value is over 42, the “in vitro activity against RSV (in words)” value is “potent in vitro activity against RSV” and the pEC50 was 5.62.

Turning to `CCCCCCCCCC(=O)NCC(COP(=O)([O-])OCC[N+](C)(C)C)OCC` (centres unmarked) [KPC-11, decylamido-2-ethoxypropylphosphocholine], in series [1], the CC50 at 48 h is over 100 µM. Besides, in the series on RSV (Long strain), the “SI (Selectivity Index: TC50 Cell Growth divided by EC50 Plaque Inhibition)” value is recorded as over 28, the “in vitro activity against RSV (in words)” value is recorded as “potent in vitro activity against RSV” and the pEC50 was 5.46.

(Values after US20050187191A1, “Methods and compositions for the treatment of respiratory syncytial virus” (priority 2004, published 2005).)
